Values quoted from earlier work, collected in US20240417323A1, “BUBBLE-CONTAINING GYPSUM SLURRY” (KAO CORPORATION, priority 2022, published 2024).

Conditions: 1-octanol/water; measured value if any, otherwise C log P calculated by C LOG P v 4.01

SMILES	Log P
CCCCOC(=O)C(C)O (centres unmarked) [butyl lactate]	0.8
CC(C)CC(C)O (centres unmarked) [4-methyl-2-pentanol]	1.57
CCC(C)(O)CC [3-methyl-3-pentanol]	1.57
CC(C)C(C)O (centres unmarked) [3-methyl-2-butanol]	1.28
CCC(C)(C)CO [2,2-dimethyl-1-butanol]	1.57
CCCC=O [butanal]	0.88
CC(C)CCCO [4-methyl-1-pentanol]	1.75
CCC(O)C(C)C (centres unmarked) [2-methyl-3-pentanol]	1.57
CCCCOCC [butyl ethyl ether]	2.03
CCCCCCCO [Example 1-heptanol, 1-heptanol]	2.62
CCCCCC=O [hexanal]	1.78
CCCC(C)(C)O [2-methyl-2-pentanol]	1.57
CC(C)CCCCCO [6-methyl-1-heptanol]	2.73
COC [dimethyl ether]	0.1
CCC(C)CCO (centres unmarked) [3-methyl-1-pentanol]	1.75
OC1CCCC1 [cyclopentanol]	0.71
CC(C)OC(C)C [diisopropyl ether]	1.52
CCC(C)C(C)O (centres unmarked) [3-methyl-2-pentanol]	1.57
CCCC(C)CO (centres unmarked) [2-methyl-1-pentanol]	1.75
CCC(CC)CO [2-ethyl-1-butanol]	1.75
